The target of test [1] is T1, AKT2 (Homo sapiens, UniProt P31751).
T1 construct: expressed in transfected cells; host or cells: HEK293
Nature of the test: Live cell target engagement by NanoBRET competitive probe displacement, AKT2. The test is classed as binding. To be noted: transfected HEK293 cells, 2 h at 37° C., read-out: AKT2 IC50: GeoMean IC50.

For test [2], the target named is T2, AKT1 E17K (Homo sapiens, UniProt P31749, E17K).
T2 construct: expressed in transfected cells; host or cells: HEK293
T2 sequence (P31749 whole entry E17K): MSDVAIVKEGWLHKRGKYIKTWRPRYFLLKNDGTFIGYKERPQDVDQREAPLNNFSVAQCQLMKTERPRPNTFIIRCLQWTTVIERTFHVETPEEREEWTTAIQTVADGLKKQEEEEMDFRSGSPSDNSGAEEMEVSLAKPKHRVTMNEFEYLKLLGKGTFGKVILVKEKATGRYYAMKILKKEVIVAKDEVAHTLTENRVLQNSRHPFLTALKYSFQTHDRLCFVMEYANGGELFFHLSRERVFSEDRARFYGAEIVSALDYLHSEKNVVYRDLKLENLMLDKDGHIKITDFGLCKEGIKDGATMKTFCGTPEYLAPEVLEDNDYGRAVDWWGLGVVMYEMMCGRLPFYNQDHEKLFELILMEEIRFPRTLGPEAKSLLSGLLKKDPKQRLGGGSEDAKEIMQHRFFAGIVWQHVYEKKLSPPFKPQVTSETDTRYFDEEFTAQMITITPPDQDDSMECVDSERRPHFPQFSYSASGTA
The experiment in a line: Live cell target engagement by NanoBRET competitive probe displacement, AKT1 E17K. The test is classed as binding. To be noted: transfected HEK293 cells, 2 h at 37° C., read-out: AKT1 E17K IC50: GeoMean IC50. (BRET reads energy transfer from a luciferase to a nearby fluorophore.)

For test [3], the target named is T3, AKT1 WT (Homo sapiens, UniProt P31749).
T3 construct: expressed in transfected cells; host or cells: HEK293
T3 sequence (P31749 whole entry): as the sequence (P31749 whole entry E17K) above, with K17E counted along it
Nature of the test: Live cell target engagement by NanoBRET competitive probe displacement, AKT1 WT. The test is classed as binding. To be noted: transfected HEK293 cells, 2 h at 37° C., read-out: AKT1 WT IC50: GeoMean IC50.

Test [4] has as its system LAPC4 prostate cancer cells, which express the AKT1 E17K allele. The experiment in a line: Antiproliferative effects in LAPC4 cells (CellTiter Glo, 72 h). The test is classed as cell-based. The note with it: Homo sapiens, LAPC4, 72 h, read-out: LAPC4 proliferation IC50: GeoMean IC50. Put shortly: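 Cells grown in IMDM with 12% FBS, seeded at 1,000 cells/well and treated with compound dilutions in DMSO for 72 h. Intracellular ATP read by luminescence. IC50 from a log(inhibitor) vs. response Hill fit.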
A general note: ATP-based viability assays read luminescence as a measure of living cells.

T1 sequence (P31751 whole entry): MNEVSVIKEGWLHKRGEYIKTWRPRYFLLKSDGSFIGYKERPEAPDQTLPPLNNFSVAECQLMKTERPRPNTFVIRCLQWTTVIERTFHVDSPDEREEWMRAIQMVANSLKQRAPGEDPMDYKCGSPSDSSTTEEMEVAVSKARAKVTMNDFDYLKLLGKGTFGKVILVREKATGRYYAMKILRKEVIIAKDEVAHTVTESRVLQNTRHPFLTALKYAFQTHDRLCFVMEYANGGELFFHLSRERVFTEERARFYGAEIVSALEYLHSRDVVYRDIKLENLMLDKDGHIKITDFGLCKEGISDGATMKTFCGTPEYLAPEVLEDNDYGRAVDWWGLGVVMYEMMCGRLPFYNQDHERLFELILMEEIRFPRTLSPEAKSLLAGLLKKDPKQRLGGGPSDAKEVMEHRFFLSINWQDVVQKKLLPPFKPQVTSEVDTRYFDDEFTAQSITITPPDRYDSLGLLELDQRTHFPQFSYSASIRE

For `Cc1coc(-c2ccc3nc(-c4cccnc4N)n(-c4ccc5c(c4)CC[C@@H]5NC(=O)c4ccc(O)c(C=O)c4)c3n2)n1` [Example 178, N-[(1S)-5-[2-(2-aminopyridin-3-yl)-5-(4-methyl-1,3-oxazol-2-yl)imidazo[4,5-b]pyridin-3-yl]-2,3-dihydro-1H-inden-1-yl]-3-formyl-4-hydroxybenzamide], the IC50 in test [1] fell in the range of 100 to 2000 nM; in test [2], 10 to 100 nM; in test [3], 10 to 100 nM; in test [4] it was 10 to 100 nM.
For `Cc1noc(-c2ccc3nc(-c4cccnc4N)n(-c4ccc5c(c4)CC[C@@H]5NC(=O)c4ccc(O)c(C=O)c4)c3n2)n1` [Example 179, N-[(1S)-5-[2-(2-aminopyridin-3-yl)-5-(3-methyl-1,2,4-oxadiazol-5-yl)imidazo[4,5-b]pyridin-3-yl]-2,3-dihydro-1H-inden-1-yl]-3-formyl-4-hydroxybenzamide], the IC50 in test [1] fell in the range of 100 to 2000 nM; in test [2], 10 to 100 nM; in test [3], 10 to 100 nM; in test [4], 100 to 2000 nM.
With `Cc1cc(-c2nccs2)nc2c1nc(-c1cccnc1N)n2-c1ccc2c(c1)CC[C@@H]2NC(=O)c1ccc(O)c(C=O)c1` [Example 180, N-[(1S)-5-[2-(2-aminopyridin-3-yl)-7-methyl-5-(1,3-thiazol-2-yl)imidazo[4,5-b]pyridin-3-yl]-2,3-dihydro-1H-inden-1-yl]-3-formyl-4-hydroxybenzamide], the IC50 in test [1], in test [2], in test [3] and in test [4] was 10 to 100 nM each time.
On to `Cc1cc(-n2ccc(F)n2)nc2c1nc(-c1cccnc1N)n2-c1ccc2c(c1)CC[C@@H]2NC(=O)c1ccc(O)c(C=O)c1` [Example 181, (S)—N-(5-(2-(2-aminopyridin-3-yl)-5-(3-fluoro-1H-pyrazol-1-yl)-7-methyl-3H-imidazo[4,5-b]pyridin-3-yl)-2,3-dihydro-1H-inden-1-yl)-3-formyl-4-hydroxybenzamide], for which the IC50 fell in the range of 100 to 2000 nM in test [1], 10 to 100 nM in test [2], 10 to 100 nM in test [3] and 100 to 2000 nM in test [4].
`COc1cc(C(=O)N[C@H]2CCc3cc(-n4c(-c5cccnc5N)nc5ccc(-n6cccn6)nc54)ccc32)cc(C=O)c1O` [Example 182, N-[(1S)-5-[2-(2-aminopyridin-3-yl)-5-(pyrazol-1-yl)imidazo[4,5-b]pyridin-3-yl]-2,3-dihydro-1H-inden-1-yl]-3-formyl-4-hydroxy-5-methoxybenzamide]: the IC50 in test [1] was in the range of 100 to 2000 nM; in test [2], 10 to 100 nM; in test [3] it was 10 to 100 nM; in test [4], 100 to 2000 nM.
For `[2H]C(=O)c1cc(C(=O)N[C@H]2CCc3cc(-n4c(-c5cccnc5N)nc5c(C)cc(-n6cccn6)nc54)ccc32)ccc1O` [Example 183, (S)—N-(5-(2-(2-aminopyridin-3-yl)-7-methyl-5-(1H-pyrazol-1-yl)-3H-imidazo[4,5-b]pyridin-3-yl)-2,3-dihydro-1H-inden-1-yl)-3-(formyl-d)-4-hydroxybenzamide], the IC50 lay in the range of 100 to 2000 nM in test [1], 10 to 100 nM in test [2], 10 to 100 nM in test [3] and 100 to 2000 nM in test [4].
In the case of `Nc1ncccc1-c1nc2ccc(-n3cccn3)nc2n1-c1ccc2c(c1)CC[C@@H]2n1cnc2cc(O)c(C=O)cc2c1=O` [Example 184, 3-[(1S)-5-[2-(2-aminopyridin-3-yl)-5-(pyrazol-1-yl)imidazo[4,5-b]pyridin-3-yl]-2,3-dihydro-1H-inden-1-yl]-7-hydroxy-4-oxoquinazoline-6-carbaldehyde], the IC50 lay in the range of 100 to 2000 nM in test [1], 10 to 100 nM in test [2], 10 to 100 nM in test [3] and 10 to 100 nM in test [4].
`Cc1cnc(-c2ccc3nc(-c4cccnc4N)n(-c4ccc5c(c4)CC[C@@H]5NC(=O)c4cc(C=O)c(O)cc4F)c3n2)s1` [Example 185, N-[(1S)-5-[2-(2-aminopyridin-3-yl)-5-(5-methyl-1,3-thiazol-2-yl)imidazo[4,5-b]pyridin-3-yl]-2,3-dihydro-1H-inden-1-yl]-2-fluoro-5-formyl-4-hydroxybenzamide]: the IC50 is 100 to 2000 nM in test [1], 10 to 100 nM in test [2], 10 to 100 nM in test [3] and 10 to 100 nM in test [4].
Regarding `Cc1cnc(-c2ccc3nc(-c4cccnc4N)n(-c4ccc5c(c4)CC[C@@H]5NC(=O)c4cc(C=O)c(O)c(F)c4F)c3n2)s1` [Example 186, N-[(1S)-5-[2-(2-aminopyridin-3-yl)-5-(5-methyl-1,3-thiazol-2-yl)imidazo[4,5-b]pyridin-3-yl]-2,3-dihydro-1H-inden-1-yl]-2,3-difluoro-5-formyl-4-hydroxybenzamide], the IC50 lay within 100 to 2000 nM in test [1], 10 to 100 nM in test [2], 10 to 100 nM in test [3] and 10 to 100 nM in test [4].
On to `Nc1ncccc1-c1nc2ccc(-n3cccn3)nc2n1-c1cc(F)c2c(c1)CC[C@@H]2NC(=O)c1ccc(O)c(C=O)c1` [Example 189, N-[(1S)-5-[2-(2-aminopyridin-3-yl)-5-(pyrazol-1-yl)imidazo[4,5-b]pyridin-3-yl]-7-fluoro-2,3-dihydro-1H-inden-1-yl]-3-formyl-4-hydroxybenzamide], for which the IC50 in test [1] was at least 2000 nM; in test [2] it was 100 to 2000 nM; in test [3] it was 100 to 2000 nM; in test [4] it was at least 2000 nM.
For `[2H]C(=O)c1cc(C(=O)N[C@H]2CCc3cc(-n4c(-c5cccnc5N)nc5ccc(-n6ccc(F)n6)nc54)ccc32)ccc1O` [Example 190, (S)—N-(5-(2-(2-aminopyridin-3-yl)-5-(3-fluoro-1H-pyrazol-1-yl)-3H-imidazo[4,5-b]pyridin-3-yl)-2,3-dihydro-1-H-inden-1-yl)-3-(formyl-d)-4-hydroxybenzamide], the IC50 was 100 to 2000 nM in test [1], 10 to 100 nM in test [2], 100 to 2000 nM in test [3] and 100 to 2000 nM in test [4].
For `CN(C)Cc1cc(C(=O)N[C@H]2CCc3cc(-n4c(-c5cccnc5N)nc5ccc(-n6cccn6)nc54)ccc32)cc(C=O)c1O` [Example 192, N-[(1S)-5-[2-(2-aminopyridin-3-yl)-5-(pyrazol-1-yl)imidazo[4,5-b]pyridin-3-yl]-2,3-dihydro-1H-inden-1-yl]-3-[(dimethylamino)methyl]-5-formyl-4-hydroxybenzamide], the IC50 was at least 2000 nM in test [1], 100 to 2000 nM in test [2], 100 to 2000 nM in test [3] and at least 2000 nM in test [4].
As to `Nc1ncccc1-c1nc2ccc(-c3ncc(F)s3)nc2n1-c1ccc2c(c1)CC[C@@H]2NC(=O)c1cc(C=O)c(O)c(F)c1F` [Example 193, N-[(1S)-5-[2-(2-aminopyridin-3-yl)-5-(5-fluoro-1,3-thiazol-2-yl)imidazo[4,5-b]pyridin-3-yl]-2,3-dihydro-1H-inden-1-yl]-2,3-difluoro-5-formyl-4-hydroxybenzamide], the IC50 in test [1], in test [2], in test [3] and in test [4] was 10 to 100 nM each time.
For `Nc1ncccc1-c1nc2ccc(-c3ncc[nH]3)nc2n1-c1ccc2c(c1)CC[C@@H]2NC(=O)c1ccc(O)c(C=O)c1` [Example 194, N-[(1S)-5-[2-(2-aminopyridin-3-yl)-5-(1H-imidazol-2-yl)imidazo[4,5-b]pyridin-3-yl]-2,3-dihydro-1H-inden-1-yl]-3-formyl-4-hydroxybenzamide], the IC50 in test [1] was 100 to 2000 nM; in test [2], 10 to 100 nM; in test [3], 100 to 2000 nM; in test [4], 100 to 2000 nM.
As to `Nc1ncccc1-c1nc2ccc(-n3cccn3)nc2n1-c1ccc2c(c1)CC(F)(F)[C@@H]2NC(=O)c1ccc(O)c(C=O)c1` [Example 195, (R)—N-(5-(2-(2-aminopyridin-3-yl)-5-(1H-pyrazol-1-yl)-3H-imidazo[4,5-b]pyridin-3-yl)-2,2-difluoro-2,3-dihydro-1H-inden-1-yl)-3-formyl-4-hydroxybenzamide], the IC50 in test [1] fell in the range of 100 to 2000 nM; in test [2], 10 to 100 nM; in test [3], 100 to 2000 nM; in test [4] it was 10 to 100 nM.
As to `Nc1ncccc1-c1nc2c(Cl)cc(-n3cccn3)nc2n1-c1ccc2c(c1)CC[C@@H]2NC(=O)c1ccc(O)c(C=O)c1` [Example 196, (S)—N-(5-(2-(2-aminopyridin-3-yl)-7-chloro-5-(1H-pyrazol-1-yl)-3H-imidazo[4,5-b]pyridin-3-yl)-2,3-dihydro-1H-inden-1-yl)-3-formyl-4-hydroxybenzamide], the IC50 lay within 100 to 2000 nM in test [1], 10 to 100 nM in test [2], 10 to 100 nM in test [3] and 100 to 2000 nM in test [4].
In the case of `CCc1cc(-n2cccn2)nc2c1nc(-c1cccnc1N)n2-c1ccc2c(c1)CC[C@@H]2NC(=O)c1ccc(O)c(C=O)c1` [Example 197, N-[(1S)-5-[2-(2-aminopyridin-3-yl)-7-ethyl-5-(pyrazol-1-yl)imidazo[4,5-b]pyridin-3-yl]-2,3-dihydro-1H-inden-1-yl]-3-formyl-4-hydroxybenzamide], the IC50 in test [1] was 10 to 100 nM; in test [2], 10 to 100 nM; in test [3], 10 to 100 nM; in test [4], 100 to 2000 nM.
With `Nc1ncccc1-c1nc2c(-n3cccn3)cc(-n3cccn3)nc2n1-c1ccc2c(c1)CC[C@@H]2NC(=O)c1ccc(O)c(C=O)c1` [Example 198, N-[(1S)-5-[2-(2-aminopyridin-3-yl)-5,7-bis(pyrazol-1-yl)imidazo[4,5-b]pyridin-3-yl]-2,3-dihydro-1H-inden-1-yl]-3-formyl-4-hydroxybenzamide], the IC50 in test [1] is 100 to 2000 nM; in test [2], 10 to 100 nM; in test [3] it was 10 to 100 nM; in test [4] it was 100 to 2000 nM.

Values taken from patent US20260053834A1, “COVALENT MODIFIERS OF AKT1 AND USES THEREOF” (Terremoto Biosciences, Inc., priority 2023, published 2026).
